US20160153052A1, “MARKER TO PREDICT AND MONITOR RESPONSE TO AURORA KINASE B INHIBITOR THERAPY” (AbbVie Inc., priority 2014, published 2016)

Columns and labels:
OCI-AML2 cells = test: Drug sensitivity of OCI-AML2 cells after p16 shRNA knockdown; type: cell-based; settings: p16 shRNA versus control shRNA, mimics CDKN2A deletion (FIG. 7)
Experimental: OCI AML2 cells were infected with control or three p16 shRNA from Sigma (MO). Infected cells were selected with 1 μM puromycin. After selection, cells were used in drug treatment experiments. All cells were maintained at 37° C. in 5% CO2.
One gene product of the CDKN2A locus is p16. Therefore shRNA was used to decrease p16 expression to mimic a situation of CDKN2A deletion. […] Given ABT-348 is a dual inhibitor of VEGF and Aurora kinase B inhibitors, ABT-869, which inhibits VEGF but not Aurora kinase B inhibitors was included to confirm the effect was specific to Aurora kinase B inhibitors inhibition.

[1] = tested on: cycling cells in blood of patients; test: Flow cytometry of patient blood, pharmacodynamic activity (≧4N cells); type: in vivo, human; settings: patients treated with ABT-348; associated with percentage of cycling cells at baseline (FIG. 3)
Experimental: Blood of patients was added to lyse fix buffer (BD Biosciences). After lysis of red blood cells, the sample was washed, and permeabilized using Phosflow Perm/wash buffer (BD Biosciences). The sample was incubated for 15 minutes with DAPI (75 ng/mL) before analyzing on a flow cytometer.

hematologic malignancies = test: Phase 1 clinical trial of ABT-348 in subjects with hematologic malignancies, CDKN2A status of objective responders; type: in vivo, human; settings: three patients assessed had deletion of CDKN2A (FIG. 2)
Excerpt: Three patients assessed had deletion of CDKN2A.

[2] = tested on: panel of cell lines with and without CDKN2A deletion; test: Sensitivity to Aurora kinase inhibitors in a panel of cell lines with and without CDKN2A deletion; type: cell-based; settings: cell line panel (FIG. 4 bottom left, FIG. 6)
Experimental: AML cell lines were obtained from the American Type Culture Collection (ATCC; Manassas, Va.) and propagated according to ATCC recommendations.
Based on observation, it was hypothesized that patient samples with a high proportion of cells in G2/M (ie. cycling) would be sensitive to ABT-348. Therefore, a database search was performed to identify genotypes likely to overexpress Aurora kinase B given its expression is increased in M phase of cell cycle (top left). […] Data from Cancer Cell Line Encyclopedia (CCLE) supported this hypothesis (top right). Sensitivity to Aurora kinase inhibitors including ABT-348 was assessed in a panel of cell lines with and without this deletion (bottom left). […] CDKN2A status was then assessed by in situ hybridization in patient samples from ABT-348 trials. An example from one patient is shown (bottom right).

Excerpt for solid tumors: The Y axis list best % tumor change from baseline and the X axis are % tumor cells assessed with a deletion in CDKN2A. The hashed line indicates a putative cutoff separating patients with deletion from those without. […] Threshold to define deletion is <1.2 copies.

Compound	sensitivity of OCI-AML2 cells after p16 knockdown (silencing p16 sensitizes) (OCI-AML2 cells)	pharmacodynamics activity [1]	objective response in patients with deletion of CDKN2A (hematologic malignancies)	sensitivity of cell lines with CDKN2A deletion versus without [2]	discontinuation due to toxicity (solid tumors; human, in vivo)	tumor response in patients without a CDKN2A deletion (solid tumors; solid tumors, patients without deletion (FIG. 1))	clinical response in patients with a deletion of CDKN2A (solid tumors; solid tumors, three patients showed a deletion of CDKN2A, best % tumor change from baseline (FIG. 1))
Cc1ccc(F)c(NC(=O)Nc2ccc(-c3cccc4[nH]nc(N)c34)cc2)c1 [ABT-869]	not	–	–	–	–	–	–
Nc1ncc(-c2cnn(CCO)c2)c2scc(-c3ccc(NC(=O)Nc4cccc(F)c4)cc3)c12 [ABT-348, 1-(4-(4-amino-7-(1-(2-hydroxyethyl)-1H-pyrazol-4-yl)thieno[3,2-c]pyridin-3-yl)phenyl)-3-(3-fluorophenyl)urea]	more sensitive	increase in the number of ≧4N cells	One patient obtained a complete response, and the others had a partial response	more sensitive	the third discontinued due to toxicity	No patient without a deletion demonstrated a tumor response	Two of these patients had a clinical response
CCN(CCCOc1ccc2c(Nc3cc(CC(=O)Nc4cccc(F)c4)n[nH]3)ncnc2c1)CCOP(=O)(O)O [AZD-1152, 2-[[3-({4-[(5-{2-[(3-Fluorophenyl)amino]-2-oxoethyl}-1H-pyrazol-3-yl)amino]-quinazolin-7-yl}oxy)propylliethyl)amino]ethyl dihydrogen phosphate]	more sensitive	–	–	–	–	–	–
